pIC50: −log10 of the molar value.
These compounds were tested on LEF/TCF transcription factor reporter (TOPFlash) (assay: TOPFlash reporter assay in HEK293 cells). Conditions: Homo sapiens, read-out: TopFlash assay: IC50.
Assay type: cell-based
Description: To obtain a Frizzled1-GFP stable cell line (Fzd1GFP-U2OS), U2OS cells were transfected with pCS2ratFrizzled1-GFP and pLKO.1 (10:1 ratio by weight), using the Nucleofection transfection protocol from Amaxa, and stable receptor expressing clones were selected using 1.5 μg/mL puromycin in the culture medium. For generating TOPFlash stable cell lines, HEK293 cells were transfected with p8xTOPFlash, the Renilla luciferase plasmid, and pLKO.1 at a ratio by weight of 10:3:1 and stable clones selected using 1 μg/mL puromycin in the growth medium. pLKO.1 was used to confer puromycin resistance to the stable clones.
For the TOPFlash Luciferase assay the TOPFlash stable cells were seeded in 150 μL growing medium/well in 96-well plates at 100% confluency. Fifty microliters of conditioned medium containing the chemical compounds to be tested or DMSO were added to each well. After an 8 hr treatment, the cells were then washed once with PBS, and lysed with 80 μL MPER solution (Pierce, Rockford, Ill.). Thirty microliters of cell lysate were used for measuring luciferase activity in a 96-well plate reader (FluoStar Optima, BMG Labtech, Chicago, Ill.).
LEF/TCF transcription factor reporter (TOPFlash) assay is a general readout for canonical Wnt signaling pathways. […] A Renila luciferase plasmid was also generated to serve as an internal control.
The average TOPFlash reporter activity of Wnt3A plus DMSO treatment was set as 100%, and the relative reporter activity of Wnt3A plus the indicated concentration of niclosmide was calculated and plotted.
The compounds shown in Table 2 were purchased from Sigma-Aldrich (St. Louis, Mo.) or Chembridge (San Diego, Calif.). The activity of each of the compounds as a negative modulator of the Wnt/Frizzled signaling pathway was examined using the Top-flash assay, as described above.

Row | SMILES | pIC50
1 | Nc1ccc(NC(=O)c2cc(Cl)ccc2O)c(Cl)c1 [Compound 1-2, N-(4-amino-2-chlorophenyl)-5-chloro-2-hydroxybenzamide] | < 4.90
2 | O=C(Nc1ccc([N+](=O)[O-])cc1)c1cc(Cl)ccc1O [Compound 1-4, 5-chloro-2-hydroxy-N-(4-nitrophenyl)benzamide] | > 6.00
3 | COc1ccc(Cl)cc1C(=O)Nc1ccc([N+](=O)[O-])cc1Cl [Compound 1-6, Benzamide, 5-chloro-N-(2-chloro-4-nitrophenyl)-2-methoxy-] | < 4.90
4 | O=C(Nc1ccc([N+](=O)[O-])cc1Cl)c1cccc(Cl)c1 [Compound 1-7, Benzamide, 3-chloro-N-(2-chloro-4-nitrophenyl)-] | < 4.90
5 | O=C(Nc1cc(Cl)cc(Cl)c1O)c1c(O)c(Cl)cc(Cl)c1Cl [Compound 2-1, Oxyclozanide] | < 4.90
6 | O=C(Nc1ccc(Oc2ccc(Cl)cc2)c(Cl)c1)c1cc(I)cc(I)c1O [Compound 2-2, Rafoxanide] | < 4.90
7 | Cc1cc(C(C#N)c2ccc(Cl)cc2)c(Cl)cc1NC(=O)c1cc(I)cc(I)c1O (stereo not shown) [Compound 2-3, Closantel] | < 4.90
8 | O=C(Nc1ccc(Br)cc1)c1cc(Br)cc(Br)c1O [Compound 2-4, 3,5-dibromo-N-(4-bromophenyl)-2-hydroxybenzamide] | < 4.90
9 | O=C(Nc1ccc(NS(=O)(=O)c2ccc(Cl)cc2)cc1Cl)c1cc(Cl)ccc1O [Compound 3-1, 5-chloro-N-(2-chloro-4-{[(4-chlorophenyl)sulfonyl]amino}phenyl)-2-hydroxybenzamide] | < 4.90
10 | Cc1cc([N+](=O)[O-])c(Cl)cc1NC(=O)c1ccccc1O [Compound 3-2, N-(5-chloro-2-methyl-4-nitrophenyl)-2-hydroxybenzamide] | > 6.00
11 | O=C(Nc1ccc([N+](=O)[O-])cc1Cl)c1cc(Cl)cc(Cl)c1O [Compound 3-3, 3,5-dichloro-N-(2-chloro-4-nitrophenyl)-2-hydroxybenzamide] | 4.90 to 6.00
12 | O=C(Nc1ccc([N+](=O)[O-])cc1Cl)c1cc(Br)ccc1O [Compound 3-4, 5-bromo-N-(2-chloro-4-nitrophenyl)-2-hydroxybenzamide] | > 6.00
13 | O=C(Nc1ccc([N+](=O)[O-])cc1)c1cc(Br)ccc1O [Compound 3-5, 5-bromo-2-hydroxy-N-(4-nitrophenyl)benzamide] | > 6.00

The remaining lines, values ahead:

Row | pIC50 | SMILES
14 | < 4.90 | O=C1c2ccc([N+](=O)[O-])cc2C(=O)N1c1cc(Cl)ccc1O [Compound 3-6, 2-(5-chloro-2-hydroxyphenyl)-5-nitro-1H-isoindole-1,3(2H)-dione]
15 | 4.90 to 6.00 | O=C(Nc1ccc([N+](=O)[O-])cc1Br)c1ccccc1O [Compound 3-7, N-(2-bromo-4-nitrophenyl)-2-hydroxybenzamide]
16 | 4.90 to 6.00 | O=C(Nc1ccc([N+](=O)[O-])cc1Cl)c1ccccc1O [Compound 3-8, N-(2-chloro-4-nitrophenyl)-2-hydroxybenzamide]
17 | > 6.00 | COc1cc([N+](=O)[O-])ccc1NC(=O)c1cc(Cl)ccc1O [Compound 3-9, 5-chloro-2-hydroxy-N-(2-methoxy-4-nitrophenyl)benzamide]
18 | < 4.90 | O=C(Nc1cc(Cl)ccc1O)c1ccc([N+](=O)[O-])cc1 [Compound 3-10, N-(5-chloro-2-hydroxyphenyl)-4-nitrobenzamide]
19 | < 4.90 | CS(=O)(=O)c1ccc(NC(=O)c2cc(Cl)ccc2O)c(Cl)c1 [Compound 3-11, 5-chloro-N-[2-chloro-4-(methylsulfonyl)phenyl]-2-hydroxybenzamide]

From patent US20130005802A1, “TREATMENT OF WNT/FRIZZLED-RELATED DISEASES” (priority 2009, published 2013)
